Test results: PMC6199744, “Development of Chemical Proteomics for the Folateome and Analysis of the Kinetoplastid Folateome” (ACS Infectious Diseases, 2018)
Where two headings read alike, the source gives them in different places.

System: T. brucei lysate proteins
Format: binding, Trypanosoma brucei
Conditions: vehicle control = 1

## Nc1nc2c(c(=O)[nH]1)N(C=O)C(CNc1ccc(C(=O)N[C@@H](CCC(=O)O)C(=O)O)cc1)CN2 (stereo partly drawn) [LEU, leucovorin]
Protein TB427.06.3630 SPHINGOSINE 1-PHOSPHATE LYASE, PUTATIVE
  fold change: 0.94
Protein TB427.06.3670 PAR[…] COMPONENT, PUTATIVE
  fold change: 0.77
Protein TB427.06.4480 VALYL-TRNA SYNTHETASE, PUTATIVE
  fold change vs vehicle control: 1.07
Protein TB427.06.4740 IMPORTIN-ALPHA RE-EXPORTER PROTEIN, PUTATIVE
  fold change: 1.22
Protein TB427.06.700 ALANYL-TRNA SYNTHETASE, PUTATIVE
  fold change: 0.94
Protein TB427.07.1300 PROTEIN DISULFIDE ISOMERASE, PUTATIVE
  fold change vs vehicle control: 1.76
Protein TB427.07.1420 HY[…], CONSERVED
  fold change: 0.96
Protein TB427.07.2340 40S RIBOSOMAL PROTEIN S15, PUTATIVE
  fold change: 0.96
Protein TB427.07.3160 DYNEIN HEAVY CHAIN, CYTOSOLIC, PUTATIVE
  fold change vs vehicle control: 0.86
Protein TB427.07.3530 HY[…], CONSERVED
  fold change: 0.87
Protein TB427.07.4180 FATTY ACID ELONGASE, PUTATIVE
  fold change: 0.95
Protein TB427.07.4970 GLUTAMINE SYNTHETASE, PUTATIVE
  fold change: 0.91
Protein TB427.07.7500 THYMINE-7-HYDROXYLASE, PUTATIVE
  fold change vs vehicle control: 0.97
Protein TB427.08.2060 HY[…], CONSERVED
  fold change: 0.77
Protein TB427.08.3490 HY[…], CONSERVED
  fold change: 1
Protein TB427.08.3520 HY[…], CONSERVED
  fold change: 0.94
Protein TB427.08.3870 HY[…], CONSERVED
  fold change: 1.66
Protein TB427.08.5460 FLAGELLAR CALCIUM-BINDING PROTEIN
  fold change: 1.21
Protein TB427.08.5760 HY[…], CONSERVED
  fold change: 0.93
Protein TB427.08.6390 LYSOPHOSPHOLIPASE, PUTATIVE
  fold change: 1.26
Protein TB427.08.650 CATION-TR[…], PUTATIVE
  fold change: 0.8
Protein TB427.10.10020 HY[…], CONSERVED
  fold change: 0.93
Protein TB427.10.10350 PROTEIN KINASE, PUTATIVE
  fold change: 0.95
Protein TB427.10.10360 MICROTUBULE-[…], PUTATIVE
  fold change: 0.82
Protein TB427.10.1060 T-COMPLEX PROTEIN 1, DELTA SUBUNIT, PUTATIVE
  fold change: 1.18
Protein TB427.10.10610 PROTEIN TYROSINE PHOSPHATASE, PUTATIVE
  fold change vs vehicle control: 2.13
Protein TB427.10.1100 60S RIBOSOMAL PROTEIN L9, PUTATIVE
  fold change vs vehicle control: 1.1
Protein TB427.10.11760 PUMILIO/PUF RNA BINDING PROTEIN 6
  fold change vs vehicle control: 0.98
Protein TB427.10.12710 HEAT SHOCK PROTEIN, PUTATIVE
  fold change: 2.54
Protein TB427.10.12820 HY[…], CONSERVED
  fold change vs vehicle control: 1.13
Protein TB427.10.14140 PYRUVATE KINASE 1
  fold change: 1.34
Protein TB427.10.14470 INTR[…] PROTEIN IFT140, PUTATIVE
  fold change vs vehicle control: 1.07
Protein TB427.10.14890 C-TERMINAL MOTOR KINESIN, PUTATIVE
  fold change: 1.36
Protein TB427.10.2020 HEXOKINASE
  fold change: 1.68
Protein TB427.10.2290 CHAPERONE PROTEIN DNAJ, PUTATIVE
  fold change: 0.89
Protein TB427.10.2350 PYRUVATE DEH[…] E3 BINDING PROTEIN, PUTATIVE
  fold change: 0.89
Protein TB427.10.4610 […]-MANNOSE SYNTHASE, PUTATIVE
  fold change: 0.94
Protein TB427.10.5810 HY[…], CONSERVED
  fold change vs vehicle control: 2.19
Protein TB427.10.5840 T[…] 1-BETA, PUTATIVE
  fold change: 1.21
Protein TB427.10.5850 HY[…], CONSERVED
  fold change: 0.84
Protein TB427.10.6150 […]/BEIGE PROTEIN, PUTATIVE
  fold change: 0.73
Protein TB427.10.6310 MAJOR VAULT PROTEIN, PUTATIVE
  fold change: 0.82
Protein TB427.10.730 ATP SYNTHASE, PUTATIVE
  fold change: 0.81
Protein TB427.10.7410 SUCCINYL-COA LIGASE GDP-FORMING] BETA-CHAIN, PUTATIVE
  fold change vs vehicle control: 1.13
Protein TB427.10.7630 HY[…], CONSERVED
  fold change vs vehicle control: 1.07
Protein TB427.10.8230 PROTEIN DISULFIDE ISOMERASE
  fold change vs vehicle control: 2.42
Protein TB427.10.8910 HY[…], CONSERVED
  fold change: 0.93
Protein TB927.10.12700 PYRUVATE DEHYDROGENASE E1 ALPHA SUBUNIT, PUTATIVE
  fold change vs vehicle control: 0.9
Protein TB927.10.12740 HY[…], CONSERVED,ZINC FINGER PROTEIN FAMILY MEMEBER, PUTATIVE
  fold change: 1.1
Protein TB927.10.12840 MIT[…] PROTEIN, PUTATIVE
  fold change: 0.92
Protein TB927.10.13290 ETHANOLAMINE PHOSPHOTRANSFERASE (EPT)
  fold change vs vehicle control: 0.95
Protein TB927.10.14800 PROTEIN KINASE, PUTATIVE
  fold change vs vehicle control: 1.13
Protein TB927.10.1550 […]-ATP-ASE SUBUNIT 5
  fold change: 0.94
Protein TB927.10.2890 ENOLASE
  fold change vs vehicle control: 1.93
Protein TB927.10.2980 […]-ATPASE SUBUNIT 11
  fold change: 0.91
Protein TB927.10.4570 […] 2
  fold change vs vehicle control: 1.87
Protein TB927.10.4690 DYNEIN LIGHT CHAIN, PUTATIVE
  fold change: 0.96
Protein TB927.10.5370 40S RIBOSOMAL PROTEIN S10, PUTATIVE
  fold change: 1
Protein TB927.10.540 ATP-DEPENDENT DEAD/H RNA HELICASE, PUTATIVE
  fold change vs vehicle control: 1.4
Protein TB927.10.5500 HY[…], CONSERVED
  fold change: 0.99
Protein TB927.10.560 40S RIBOSOMAL PROTEINS S11, PUTATIVE
  fold change vs vehicle control: 1.35
Protein TB927.10.6050 CLATHRIN HEAVY CHAIN
  fold change: 0.82
Protein TB927.10.8030 HY[…], CONSERVED
  fold change vs vehicle control: 0.97
Protein TB927.10.8160 HY[…], CONSERVED
  fold change vs vehicle control: 0.94
Protein TB927.2.100 RETRO[…] SPOT (RHS) PROTEIN, PUTATIVE,RETRO[…] SPOT PROTEIN 1 (RHS1), PUTATIVE
  fold change: 1.21
Protein TB927.2.2440 […]-ATPASE SUBUNIT 6
  fold change vs vehicle control: 1.21
Protein TB927.2.3800 MRNA […], PUTATIVE
  fold change: 0.96
Protein TB927.3.1240 PROTEIN PHOSPHATASE 2A, PUTATIVE
  fold change: 0.82
Protein TB927.3.1840 3-OXO-5-ALPHA-STEROID 4-DEHYDROGENASE, PUTATIVE
  fold change: 0.93
Protein TB927.3.2960 INOSINE-ADENOSINE-GUANOSINE-[…]
  fold change vs vehicle control: 2.01
Protein TB927.3.3190 SERINE/THREONINE-PROTEIN KINASE, PUTATIVE
  fold change: 0.93
Protein TB927.3.3450 ADP-RI[…]-LIKE PROTEIN 3A, PUTATIVE
  fold change vs vehicle control: 2.74
Protein TB927.3.3490 HIGH MOBILITY GROUP PROTEIN, PUTATIVE
  fold change vs vehicle control: 1.29
Protein TB927.3.5120 HY[…], CONSERVED (Ankyrin repeats (3 copies), putative)
  fold change vs vehicle control: 1.41
Protein TB927.3.740 HY[…], CONSERVED
  fold change vs vehicle control: 0.99
Protein TB927.4.2740 HY[…], CONSERVED (p25-alpha, putative)
  fold change vs vehicle control: 2.04
Protein TB927.4.3590 T[…] 1-BETA, PUTATIVE
  fold change: 1.21
Protein TB927.4.3820 HY[…], CONSERVED
  fold change vs vehicle control: 0.99
Protein TB927.5.1630 HY[…], CONSERVED
  fold change: 0.83
Protein TB927.5.4440 DYNEIN LIGHT CHAIN, PUTATIVE
  fold change vs vehicle control: 1.1
Protein TB927.6.2200 HY[…], CONSERVED
  fold change: 0.98
Protein TB927.6.3740 HEAT SHOCK 70 KDA PROTEIN, MIT[…], PUTATIVE
  fold change vs vehicle control: 1.13
Protein TB927.6.4980 40S RIBOSOMAL PROTEIN S14
  fold change: 0.97
Protein TB927.7.1750 60S RIBOSOMAL PROTEIN L7, PUTATIVE
  fold change vs vehicle control: 1.49
Protein TB927.7.4470 HY[…], CONSERVED
  fold change vs vehicle control: 1.31
Protein TB927.7.7430 ATP SYNTHASE ALPHA CHAIN, MIT[…]
  fold change vs vehicle control: 1.2
Protein TB927.8.4330 SMALL GTP-BINDING PROTEIN RAB11
  fold change: 0.97
Protein TB927.8.4770 SMALL GTP-BINDING PROTEIN RAB18
  fold change: 0.93
Protein TB927.8.4810 PROHIBITIN 1
  fold change vs vehicle control: 0.99
Protein TB-292 MEMBRANE ASSOCIATED PROTEIN
  fold change: 0.88
